# Laboratory results as given in US6818215B2, “Antibodies to senescent cell-derived inhibiters of DNA synthesis” (priority 1991, dated 2004).
# Columns and labels:
# [1] = test system: Burkitt Lymphoma (Daudi); assay: GST-SDI-1 fusion protein, thymidine incorporation; type: cell-based, human; details: 30 μg/ml
# Description: (§1) As indicated above, SDI-1 has the capacity to suppress the proliferation of tumor cells. […] In the experiment, 5×10^3 cells were plated overnight at 37° C. (only for adherent cells) and then incubated with the SDI fusion protein. After 48 hours at 37° C., cells were pulsed with thymidine for 24 hours and then harvested. The results of this experiment are shown in Table 8; the thymidine incorporation by untreated cells was expressed as 100%. all determinations were made in quadruplicate.
# [2] = test system: Glial (U-251); assay: GST-SDI-1 fusion protein, thymidine incorporation; type: cell-based, human
# Description: as §1
# [3] = test system: Breast (T-47 D); assay: GST-SDI-1 fusion protein, thymidine incorporation; type: cell-based, human
# Description: as §1
# [4] = test system: Lung adenocarcinoma (A-549); assay: GST-SDI-1 fusion protein, thymidine incorporation; type: cell-based, human
# Description: as §1
# [5] = test system: Hepatocellular (Hep G2); assay: GST-SDI-1 fusion protein, thymidine incorporation; type: cell-based, human
# Description: as §1
# [6] = test system: SV40 early promoter with three E2F binding sites (SV/E2F); assay: CAT reporter transcription assay, SV/E2F-CAT; type: cell-based; details: A31 cells
# Description: The effect of the human SDI-1 on transcription driven by two E2F-responsive promoters was determined. Proliferating A31 cells were transfected with an SDI-1 expression vector in which the SDI-1 cDNA was driven by the strong constitutive cytomegalovirus early promoter (CMV) together with a reporter vector in which the chloramphenicol acetyltransferase (CAT) gene was driven by either the hamster dihydrofolate reductase (DHFR) promoter or the human cdc2 promoter (cdc2-CAT). A31 cells are Balb/c murine 3T3 fibroblasts whose origin and growth properties have been described (Lu, K. et al., Molec. Cell. Biol. 9:3411-3417 (1989); Dimri, G. P et al., J. Biol. Chem. 269:16180-16186 (1994), herein incorporated by reference). Cells were transfected with 2 μg of expression vectors, reporters vectors (for transactivation) and the CMV-β-gal identification/normalization vector using Lipofectamine (Gibco-BRL), as described by Dimri, G. P et al. (J. Biol. Chem. 269:16180-16186 (1994), herein incorporated by reference), The vector backbone was added to the mixture as needed to equalize the amount of transfected DNA. […]
# To more critically ascertain whether the inhibition of transcription by SDI-1 was E2F-dependent, three E2F binding sites were inserted into the SV40 early promoter and the effect of CMV-SDI-1 on CAT activity driven by this modified promoter (SV/E2F) was determined. […]
# [7] = test system: A31 cells; assay: DNA synthesis in transfected (β-galactosidase positive) cells, radiolabeled nuclei; type: cell-based, murine
# Description: (§2) The effect of the human SDI-1 on transcription driven by two E2F-responsive promoters was determined. Proliferating A31 cells were transfected with an SDI-1 expression vector in which the SDI-1 cDNA was driven by the strong constitutive cytomegalovirus early promoter (CMV) together with a reporter vector in which the chloramphenicol acetyltransferase (CAT) gene was driven by either the hamster dihydrofolate reductase (DHFR) promoter or the human cdc2 promoter (cdc2-CAT). A31 cells are Balb/c murine 3T3 fibroblasts whose origin and growth properties have been described (Lu, K. et al., Molec. Cell. Biol. 9:3411-3417 (1989); Dimri, G. P et al., J. Biol. Chem. 269:16180-16186 (1994), herein incorporated by reference). Cells were transfected with 2 μg of expression vectors, reporters vectors (for transactivation) and the CMV-β-gal identification/normalization vector using Lipofectamine (Gibco-BRL), as described by Dimri, G. P et al. (J. Biol. Chem. 269:16180-16186 (1994), herein incorporated by reference), The vector backbone was added to the mixture as needed to equalize the amount of transfected DNA. Seventy-two hours later, the cells were lysed and assayed for chloramphenicol acetyl transferase (CAT) and β-galactosidase activity. Both DHFR and cdc2 were expressed by proliferating cells, largely due to E2F-mediated transcription that is dependent on E2F binding sites in the 5′ regulatory regions of these genes (Slansky, J. E. et al., Molec. Cell. Biol. 13:1610-1618 (1993); Dalton, S., EMBO J. 11:1797-1804 (1992)).
# These mutants included a naturally occurring SDI-1 variant (p21pm) in which the serine at amino acid 31 was replaced by an arginine. This polymorphism has been detected in approximately 10% of normal human cells thus far examined, and appears to result in a slight reduction in the antiproliferative properties of SDI-1 (Table 17). A SDI-1 expression vector for this allele (CMV-p21pm) was compared with CMV-SDI-1 for ability to inhibit DNA synthesis and E2F-mediated transactivation in proliferating A31 cells. […]
# [8] = test system: hamster dihydrofolate reductase (DHFR) promoter; assay: CAT reporter transcription assay, DHFR-CAT; type: cell-based
# Description: as §2
# The SDI-1 expression vector, CMV-SDI-1, but not the control vector, suppressed CAT activity driven by either the DHFR or cdc2 promoter (Table 16). CMV-SDI-1 was maximally inhibitory at above 2 μg of DNA under the assay conditions used. CAT activity in Table 16 is reported in counts per minute, normalized to the β-galactosidase activity. At this concentration, CMV-SDI-1 inhibited the DHFR promoter, which contains two strong E2F binding sites (Slansky, J. E. et al., Molec. Cell. Biol. 13:1610-1618 (1993)), somewhat more strongly than the cdc2 promoter, which contains a single E2F binding site (Dalton, S., EMBO J. 11:1797-1804 (1992)) (50-70% inhibition vs 40-50% inhibition). This difference in sensitivity is consistent with the finding that the DHFR promoter is somewhat more sensitive than the cdc2 promoter to stimulation by E2F1, a component of E2F (Dimri, G. P et al., J. Biol. Chem. 269:16180-16186 (1994)). At the concentrations used here, CMV-SDI-1 inhibited DHFR-CAT and cdc2-CAT expression to approximately the same extent that it inhibited DNA replication.
substance,measurement,setting,value
"SDI-1: senescent cell derived inhibitor of DNA synthesis, 164 amino acid protein, SEQ ID NO:2",Relative Cell (% of Control),[1],3 ± 0 % of Control
same,Relative Cell (% of Control),[2]; 30 μg/ml,66 ± 4 % of Control
same,Relative Cell (% of Control),[2]; 50 μg/ml,35 ± 2 % of Control
same,Relative Cell (% of Control),[3]; 30 μg/ml,2 ± 0 % of Control
same,Relative Cell (% of Control),[3]; 50 μg/ml,2 ± 0 % of Control
same,Relative Cell (% of Control),[4]; 30 μg/ml,40 ± 1 % of Control
same,Relative Cell (% of Control),[4]; 50 μg/ml,25 ± 3 % of Control
same,Relative Cell (% of Control),[5]; 30 μg/ml,21 ± 3 % of Control
same,Relative Cell (% of Control),[5]; 50 μg/ml,12 ± 2 % of Control
same,Transcription (Normalized) % Activity,[6],50%
same,Transcription (Normalized) % Inhibition,[6],50%
same,inhibition (antiproliferative effect),[7]; A31 cells,65-75%
same,DNA Synthesis % LN,[7]; percentage of transfected cells with radiolabeled nuclei,17%
same,DNA Synthesis % Inhibition,[7]; proliferating A31 cells,75%
same,% Activity,"[8]; SDI-1 0.2 μg, A31 cells",97%
same,% Inhibition,"[8]; SDI-1 0.2 μg, A31 cells",4%
same,Normalized CAT Activity,"[8]; SDI-1 0.2 μg, A31 cells",9155 counts per minute
same,% Activity,[8]; SDI-1 1.0 μg,87%
same,% Inhibition,[8]; SDI-1 1.0 μg,13%
same,Normalized CAT Activity,[8]; SDI-1 1.0 μg,8196 counts per minute
same,% Activity,[8]; SDI-1 2.0 μg,28%
same,% Inhibition,[8]; SDI-1 2.0 μg,72%
same,Normalized CAT Activity,[8]; SDI-1 2.0 μg,2613 counts per minute
same,% Activity,[8]; SDI-1 4.0 μg,19%
same,% Inhibition,[8]; SDI-1 4.0 μg,81%
same,Normalized CAT Activity,[8]; SDI-1 4.0 μg,1757 counts per minute
